Here are results for five molecules from patent US11178870B2 (priority 2017, dated 2021).

SMILES strings stand for the structures.

One experiment deals with Magnaporthe grisea. Briefly: whole plant or invertebrate. It counts as in vivo. Particulars: Pyricularia oryzae, in Oryza sativa, read-out: control value, Test A (blast on rice).
A further experiment relates to Botrytis cinerea. Briefly: Test Example B: Gray mold on tomato. The experiment is classed as in vivo. Particulars: Table 7, Test B, read-out: control value, Test B (gray mold on tomato).
The next experiment deals with Alternaia brassicicola. Briefly: Test Example C: Alternaria sooty spot on cabbage. It counts as in vivo. Particulars: Brassica oleracea; Table 7, Test C; read-out: control value, Test C (Alternaria sooty spot on cabbage).
Experiment [1] concerns Blumeria graminis f. sp. hordei. Briefly: Test Example D: Powdery mildew on barley. It counts as in vivo. Particulars: Table 7, Test D, read-out: control value, Test D (powdery mildew on barley).
Another experiment has as its system Puccinia recondita. The experiment in a line: Test Example E: Brown rust on wheat. The note with it: Table 7, Test E, read-out: control value, Test E (brown rust on wheat). It counts as in vivo.
Another experiment has as its system Phytophthora infestans. Briefly: whole plant or invertebrate. The experiment is classed as in vivo. The note with it: in Solanum lycopersicum, read-out: control value, Test F (late blight on tomato).
In the next experiment the test system is Plasmopara viticola. The experiment in a line: Test Example G: Downy mildew on vine. The experiment is classed as in vivo. Particulars: 250 ppm sprayed (2.5 ml/pot) before inoculation, assessed 7 to 10 days after inoculation, read-out: control value, Test G (downy mildew on vine).
The test system of experiment [2] is Colletotrichum orbiculare. The experiment in a line: whole plant or invertebrate. Particulars: in Cucumis sativus, read-out: control value, Test H (anthracnose on cucumber).
Description: Seeds of a test plant (cucumber variety: Sagami Hanjiro) were planted and cultivated until the first leaf appeared. In the test, the compounds of the present invention were dissolved into a dimethyl sulfoxide-methanol mixture solution (volume ratio: 9/1), and the resultant solutions were diluted with well water to a concentration of 250 ppm. The thus-obtained dilutions were sprayed to the test plant (2.5 ml/pot). After the dilutions dried, a conidial suspension (2-4×10^5 conidia/ml) of Colletotrichum orbiculare was inoculated to the plant by spraying. After the inoculation, the plant was kept in a mist chamber at room temperature of 20 to 23° C. for about 24 hours to promote the onset of disease. The disease development was investigated 6 to 10 days after the inoculation, and the effectiveness of the dilutions was evaluated.
Disease development in Test Example described above was evaluated in increments of 0.05 by setting 0 as no incidence of disease and 3 as disease development in a plant of untreated group. In addition, control values were calculated using the following equation based on disease development.
Control value=100 {1−(n/3)}
n=Disease development of each treated groups

Turning to `CCn1c(-c2c(F)cc(F)cc2F)c(-n2cc(Cl)cn2)cc(OC)c1=O` [compound 225, 5-(4-chloro-1H-pyrazol-1-yl)-1-ethyl-3-methoxy-6-(2,4,6-trifluorophenyl)pyridin-2(1H)-one], the pest or weed control at 250 µg/mL was below 50% with Magnaporthe grisea; below 50% in the experiment on Botrytis cinerea; above 50% in the experiment with Alternaia brassicicola; above 50% in experiment [1]; above 50% with Puccinia recondita; below 50% in the experiment with Phytophthora infestans. In addition, the results for the pest or weed control at 250 ppm (with Plasmopara viticola; in experiment [2]) were above 50% and below 50%, respectively.

As to `CCn1c(-c2ccc(F)cc2F)c(-n2cc(C)cn2)cc(Br)c1=O` [compound 226, 3-bromo-6-(2,4-difluorophenyl)-1-ethyl-5-(4-methyl-1H-pyrazol-1-yl)pyridin-2(1H)-one], the pest or weed control at 250 µg/mL in the experiment on Magnaporthe grisea is above 50%; in the experiment with Botrytis cinerea, above 50%; with Alternaia brassicicola it was above 50%; in experiment [1], above 50%; in the experiment on Puccinia recondita, above 50%; with Phytophthora infestans, below 50%. Besides, the pest or weed control at 250 ppm (in the experiment on Plasmopara viticola; in experiment [2]) was above 50% throughout.

On to `CCn1c(-c2ccc(F)cc2F)c(-n2ncc(C)c2Cl)cc(Br)c1=O` [compound 228, 3-bromo-5-(5-chloro-4-methyl-1H-pyrazol-1-yl)-6-(2,4-difluoro-phenyl)-1-ethylpyridin-2(1H)-one], for which the pest or weed control at 250 µg/mL in the experiment on Magnaporthe grisea is above 50%; in the experiment with Botrytis cinerea, above 50%; in the experiment on Alternaia brassicicola it was above 50%; in experiment [1] it was above 50%; in the experiment with Puccinia recondita, above 50%; in the experiment on Phytophthora infestans it was below 50%. Also, the results for the pest or weed control at 250 ppm (in the experiment on Plasmopara viticola; in experiment [2]) were below 50% and above 50%, respectively.

For the molecule `CCn1c(-c2c(F)cc(F)cc2F)c(-n2cc(Cl)cn2)cc(C=O)c1=O` [compound 265, 5-(4-chloro-1H-pyrazol-1-yl)-1-ethyl-2-oxo-6-(2,4,6-trifluorophenyl)-1,2-dihydropyridin-3-carboaldehyde], the pest or weed control at 250 µg/mL in the experiment on Magnaporthe grisea is below 50%; in the experiment on Botrytis cinerea, below 50%; with Alternaia brassicicola, above 50%; in experiment [1], above 50%; in the experiment with Puccinia recondita, above 50%; with Phytophthora infestans it was below 50%. The pest or weed control at 250 ppm (in the experiment on Plasmopara viticola; in experiment [2]) was below 50% in each case.

In the case of `CCn1c(-c2c(F)cc(F)cc2F)c(-n2cc(Cl)cn2)cc(C(F)F)c1=O` [compound 266, 5-(4-chloro-H-pyrazol-1-yl)-3-(difluoromethyl)-1-ethyl-6-(2,4,6-trifluorophenyl)pyridin-2(1H)-one], the pest or weed control at 250 µg/mL was above 50% in the experiment with Magnaporthe grisea; above 50% in the experiment with Botrytis cinerea; above 50% in the experiment with Alternaia brassicicola; above 50% in experiment [1]; above 50% with Puccinia recondita; below 50% in the experiment on Phytophthora infestans. Besides, the pest or weed control at 250 ppm (with Plasmopara viticola; in experiment [2]) was above 50% each time.
